From ChEMBL document CHEMBL5149964, “Discovery and development of selective aldehyde dehydrogenase 1A1 (ALDH1A1) inhibitors” (Eur J Med Chem, 2021)
Blank lines part the entries; values can stand above or below the compound they belong to.

Key:
[1] = biological target: T1, Aldehyde dehydrogenase 1A1 (Homo sapiens, UniProt P00352); assay: Inhibition of ALDH1A1 (unknown origin)
T1 sequence (P00352 whole entry): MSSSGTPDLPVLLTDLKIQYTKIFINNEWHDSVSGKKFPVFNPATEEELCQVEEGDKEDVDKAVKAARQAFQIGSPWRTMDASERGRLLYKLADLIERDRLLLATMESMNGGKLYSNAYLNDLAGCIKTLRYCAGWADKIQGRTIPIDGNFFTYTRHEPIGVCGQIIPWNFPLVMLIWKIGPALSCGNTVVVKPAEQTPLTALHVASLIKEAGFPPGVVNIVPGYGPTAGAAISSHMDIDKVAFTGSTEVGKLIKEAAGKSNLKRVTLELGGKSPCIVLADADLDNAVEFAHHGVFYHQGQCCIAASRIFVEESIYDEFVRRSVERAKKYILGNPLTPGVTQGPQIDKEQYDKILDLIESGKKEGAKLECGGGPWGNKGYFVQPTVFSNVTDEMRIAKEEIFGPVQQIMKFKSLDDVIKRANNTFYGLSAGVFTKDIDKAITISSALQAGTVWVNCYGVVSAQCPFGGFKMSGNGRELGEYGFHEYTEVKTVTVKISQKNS

[2] = biological target: T1, Aldehyde dehydrogenase 1A1; assay: Inhibition of human ALDH1A1 using propionaldehyde as substrate in presence of NAD+ by UV-visible spectrophometric analysis
[3] = tested on: TOV21G; assay: Anticancer activity against human TOV-21G-RT cells assessed as inhibition of cell growth; assay type: functional, cell-based
[4] = tested on: NCI/ADR-RES; assay: cells; conditions: Homo sapiens
[5] = biological target: T1, Aldehyde dehydrogenase 1A1; assay: Inhibition of human ALDH1A1 expressed in Escherichia coli BL21(DE3) pLys cell in presence of NAD+ by fluorescence based assay
[6] = biological target: T2, Retinaldehyde dehydrogenase 3 (Homo sapiens, UniProt P47895); assay: Inhibition of human ALDH1A3 expressed in Escherichia coli BL21(DE3) pLys cell in presence of NAD+ by fluorescence based assay
T2 sequence (P47895 whole entry): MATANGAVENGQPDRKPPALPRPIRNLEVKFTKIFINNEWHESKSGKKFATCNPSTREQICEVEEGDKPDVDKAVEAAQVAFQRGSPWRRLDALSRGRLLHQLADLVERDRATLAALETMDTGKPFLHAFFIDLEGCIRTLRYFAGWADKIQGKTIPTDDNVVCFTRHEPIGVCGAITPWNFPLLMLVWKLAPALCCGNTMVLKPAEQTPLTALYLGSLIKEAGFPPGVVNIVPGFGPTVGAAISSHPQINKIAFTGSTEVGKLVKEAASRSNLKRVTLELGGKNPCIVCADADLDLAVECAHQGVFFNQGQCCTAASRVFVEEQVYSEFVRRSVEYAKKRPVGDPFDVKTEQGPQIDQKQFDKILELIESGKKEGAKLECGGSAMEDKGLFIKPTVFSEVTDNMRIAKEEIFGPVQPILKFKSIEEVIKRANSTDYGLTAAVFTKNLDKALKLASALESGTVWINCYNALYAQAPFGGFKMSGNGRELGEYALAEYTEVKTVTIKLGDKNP

[7] = biological target: T3, Aldehyde dehydrogenase 1A1 (Homo sapiens) (UniProt P00352); assay: Inhibition of human ALDH1A1 assessed as fluorescent enhancement checked in presence of NAD+ by fluorescence based assay
T3 sequence (whole entry): T1 sequence (P00352 whole entry)

[8] = tested on: A549; assay: Anticancer activity against human A549 cells assessed as inhibition of cell growth by MTT assay; assay type: functional, cell-based

IC50 [1]: 570 nM
Compound: CCC(SC1=Nc2ccccc2C2=NC(CC(C)C)C(=O)N12)C(=O)Nc1ccccc1 (centres undefined)

IC50 [5]: 5400 nM
IC50 [6]: 23000 nM
Compound: O=C(O)CN1C(=O)S/C(=C/c2ccc(OCc3nc4ccccc4c(=O)n3-c3ccccc3)cc2)C1=O

IC50 [1]: 1180 nM
Compound: CCC(SC1=Nc2ccccc2C2=NC(CC(C)C)C(=O)N12)C(=O)N1CCc2ccccc21 (centres undefined)

Continued, compound first:

Compound: CC(C)CCn1c(CN2CCN(C(N)=O)CC2)nc2c1c(=O)n(C)c(=O)n2C
IC50 [2]: 210 nM

Compound: CC(=O)O[C@H]1C(=O)[C@@]2(C)[C@H]([C@H](OC(=O)c3ccccc3)[C@]3(O)C[C@H](OC(=O)[C@H](O)[C@@H](NC(=O)c4ccccc4)c4ccccc4)C(C)=C1C3(C)C)[C@]1(OC(C)=O)CO[C@@H]1C[C@@H]2O [PACLITAXEL]
IC50 [3]: 264 nM
IC50 [4]: 181 nM

Compound: CCC(SC1=Nc2ccccc2C2=NC(C(C)C)C(=O)N12)C(=O)Nc1ccccc1 (centres undefined)
IC50 [1]: 440 nM

Compound: CCC(SC1=Nc2ccccc2C2=NC(C(C)CC)C(=O)N12)C(=O)N1CCc2ccccc21 (centres undefined)
IC50 [1]: 390 nM

Compound: Cc1cc(C=O)ccc1-c1c2cc(F)c(=O)cc-2oc2cc(O)c(F)cc12
Activity [7]: 20

Compound: CCCCCC(=O)N1C[C@@H](CCl)c2c1ccc1ccccc21
IC50 [8]: 28 nM

Compound: CCC(SC1=Nc2ccccc2C2=NC(C(C)C)C(=O)N12)C(=O)N1CCc2ccccc21 (centres undefined)
IC50 [1]: 840 nM

Compound: COc1cccc2c1C(=O)c1c(O)c3c(c(O)c1C2=O)C[C@@](O)(C(=O)CO)C[C@@H]3O[C@H]1C[C@H](N)[C@H](O)[C@H](C)O1 [DOXORUBICIN]
IC50 [3]: 373 nM
IC50 [4]: 206 nM
